{"source": "patent US20240398822A1", "about": "“METHODS AND COMPOSITIONS FOR TREATING AND MANAGING ALZHEIMER'S DISEASE” (Pharmatrophix, Inc., priority 2021, published 2024)", "key": {"[1]": {"assay": "Aqueous solubility of the drug substance", "assay_type": "physicochemical", "conditions": "water", "description": "Preparation of the clinical dosage form consists of a dry fill of the drug substance into gelatin capsules with no excipients. For the Phase II study, capsules with the salt of Formula (II)(200 mg or 400 mg, free base weight) are machine-filled and packaged in blister strips with aluminum foil backing, which are stored in cardboard boxes. Matching placebo capsules are also available in the same packaging."}, "tau": {"system": "tau", "assay": "Phase IIa CSF total tau", "assay_type": "in vivo, human", "from_the_text": "(§1) CSF samples were obtained at screening Visit and final Visit via lumbar puncture to determine levels of tau, p-tau, Aβ40, Aβ42 and AChE activity as an initial set of CSF biomarkers. Aliquots of CSF were made available for emerging CSF biomarker methods such as measurement of additional biomarkers including neurofilaments light chain, neurogranin, SNAP-25, synaptotagmin, YKL-40, TREM2, tau oligomers and for measurement of drug level in selected patients based on the time period between last dose of drug and CSF sampling (FIG. 25 and FIG. 58).\nBaseline CSF samples are obtained prior to administration via lumbar puncture. These samples are used to determine levels of tau, p-tau, Aβ40, Aβ42, AChE, neurofilament light chain, SNAP-25, synaptotagmin-1, neurogranin, sTREM, and YKL-40. Aliquots of CSF are also made available for emerging CSF biomarker methods such as measurement of tau oligomers and for measurement of drug level in selected patients based on time period between last dose of the salt of Formula (II) and CSF sampling. […] Many of these biomarkers can also be measured in blood or plasma. The change in values over the time period from pre-treatment to post-treatment are of particular importance. […] Absolute levels at single time points of neurofilament light chain, SNAP-25, synaptotagmin-1, neurogranin, sTREM, and YKL-40 in CSF or blood or plasma are of less value given differences in assay techniques and wide variation in absolute levels within normal subjects and within and across AD subjects. In contrast, absolute levels of Aβ42 and 40 at baseline are useful biomarkers indicating the presence of amyloid pathology as low levels of Aβ42 and 40 at a given time point are consistent with amyloid pathology."}, "p-tau": {"system": "p-tau", "assay": "Phase IIa CSF p-tau", "assay_type": "in vivo, human", "conditions": "combined drug group", "from_the_text": "as §1\n(§2) Baseline CSF samples are obtained prior to administration via lumbar puncture. These samples are used to determine levels of tau, p-tau, Aβ40, Aβ42, AChE, neurofilament light chain, SNAP-25, synaptotagmin-1, neurogranin, sTREM, and YKL-40. Aliquots of CSF are also made available for emerging CSF biomarker methods such as measurement of tau oligomers and for measurement of drug level in selected patients based on time period between last dose of the salt of Formula (II) and CSF sampling. […] Many of these biomarkers can also be measured in blood or plasma. The change in values over the time period from pre-treatment to post-treatment are of particular importance. […]"}, "SYT1": {"system": "SYT1", "assay": "Phase IIa CSF pre-synaptic biomarker SYT1", "assay_type": "in vivo, human", "from_the_text": "as §1, §2"}, "[2]": {"system": "patients with mild to moderate Alzheimer's disease", "assay": "Phase IIa structural MRI (regions of interest and voxel-based whole brain analysis)", "assay_type": "in vivo, human", "description": "Volumetric MRI is conduction at the first and final visits. Volumetric analyses of the whole brain, hippocampus and other regions of interest are conducted. Measures of regional volumes as determined by MRI are regarded as standard measures of brain degeneration that are known to occur in AD. Volumes of the lateral ventricles are also assessed. Increasing ventricular volume is a marker for a diffuse increase in brain atrophy. […] The following Regions of interest were investigated in the ITT population: MRI Volume of the lateral ventricles in mm3—longitudinal stream change, MRI Average volume of the hippocampus in mm3—longitudinal stream change, MRI Average Volume of the entorhinal cortex in mm3—longitudinal stream change, MRI Total brain volume in mm3 change. Baseline and final Visit MRI scan were used to measure interval changes in volumes. Various cortical regions such as the Cingulate cortex were also assessed. […] The identified brain regions are similar in distribution to those having been previously identified to be particularly vulnerable to degeneration in AD.\nFor this analysis, the drug treatment group contains subject treated with either 200 or 400 mg doses. […] FIGS. 46A-46C show group x time interaction patterns using T1-weighted structural MRI. Contrast estimate plots show the magnitude and direction of the interaction effects observed in the flexible factorial GLM. […] Therefore, if the actual observed ratio of t-values is close to equivalent in the input map at a given p and k threshold, the MCS ratio and p-value will tend to support the null hypothesis of no drug effect. […] Increased thickness is similar to increased volume and means less degeneration. Here increased gyrification means increased atrophy."}, "[3]": {"system": "patients with mild to moderate Alzheimer's disease", "assay": "Phase IIa brain glucose metabolism (18F-FDG-PET)", "assay_type": "in vivo, human", "conditions": "for FDG-PET voxel (MCS) analysis, dose comparison: 400 mg versus 200 mg versus placebo", "description": "The specific ^18F FDG-PET scan for early detection of AD is conducted at the first and final visits. Quantitative and qualitative estimates of the cerebral glucose rate may be done by using FDG-PET as evident metabolic reduction is already present in patients at early stages of Alzheimer's disease. ^18F FDG-PET scanning is an imaging biomarker for synaptic function. Analyses include anatomical, statistical or voxel-based regions of interest.\nFDG-PET using statistical ROI measures derived from ADNI as described in the Chen et al. paper.\nAreas showing less decline are highlighted in yellow. It is notable that these areas are relevant to areas that degeneration in AD. […] This method makes possible analysis of FDG-PET signal in a common three-dimensional sampling space with the MRI analysis for each subject thereby enhancing accuracy of FDG-PET analysis and allowing the combination of the two modalities for further analyses and the assessment of the spatial relationship between structural and functional degeneration over time. […] For this analysis, the drug treatment group contains subjects treated with either 200 or 400 mg doses.\nFIGS. 56A-56C show FDG PET using group x time interaction patterns. In FIGS. 56A-56C, contrast estimate plots show the magnitude and direction of the interaction effects observed in the flexible factorial GLM.\nTherefore, if the actual observed ratio of t-values is close to equivalent in the input map at a given p and k threshold, the MCS ratio and p-value will tend to support the null hypothesis of no drug effect."}, "[4]": {"system": "subjects in SAD and MAD studies", "assay": "Phase 1 SAD/MAD safety", "assay_type": "in vivo", "from_the_text": "The phase 1 study was placebo controlled and double blinded and included 52 subjects in SAD studies and 20 subjects in MAD studies."}, "[5]": {"conditions": "flexible factorial GLM, p<0.05 and cluster size >100"}}, "note": "“Also recorded” adds a separate entry of the source.", "data": [{"smiles": "CC[C@H](C)[C@H](N)C(=O)NCCN1CCOCC1", "note": "[LM11A-31-BHS, Tris[(2S,3S)-2-amino-3-methyl-N-(2-morpholinoethyl)pentanamide] tetra(monohydrogensulfate), monosulfate]", "values": [{"measurement": "solubility", "setting": "[1]", "value": "> 30", "unit": "mg/mL"}, {"measurement": "CSF total tau, drug dose analysis", "setting": "tau; 200 mg bid or 400 mg bid versus placebo", "value": "trends for lowering of total tau reduction, especially at the 400 mg dose"}, {"measurement": "drug effect in slowing or inhibiting the CSF tau increase, younger (<72 years) versus older (>=72 years)", "setting": "tau; annual percent change (APC), 6-month trial period", "value": "greater than that found in the older group"}, {"measurement": "effect compared to placebo in decreasing the elevation of CSF tau", "setting": "tau; combined drug group, 6 month treatment period, p=0.06", "value": "near-significant effect"}, {"measurement": "increase of CSF tau levels in the drug group", "setting": "tau; combined drug group, 6 months, p=0.2 (placebo increase p=0.003)", "value": "no longer detected at a significant level"}, {"measurement": "CSF p-tau, drug versus placebo", "setting": "p-tau", "value": "trend for the drug to inhibit the trend to rise in p-tau"}, {"measurement": "CSF SYT1 levels, drug dose analysis", "setting": "SYT1; 200 and 400 mg doses", "value": "only nominal reductions below baseline at both doses"}, {"measurement": "CSF SYT1 change in the drug group", "setting": "SYT1; combined drug group, 6 months, p=0.06", "value": "trend for a decrease"}, {"measurement": "cortical thickness and gyrification", "setting": "[2]; anterior cingulate region area 33 prime", "value": "drug effect on improving cortical thickness or decreasing gyrification"}, {"measurement": "hippocampal (HC) volume, sMRI", "setting": "[2]; combined drug group, 6-month period, p=0.006", "value": "significant increase in HC volume"}, {"measurement": "volume of the dentate gyrus", "setting": "[2]; drug group, humans", "value": "promotes increased volume of the dentate gyrus; also recorded: significant increase in the volume of the dentate gyrus"}, {"measurement": "voxel-wise T1-weighted structural MRI, loss of volume, dose analysis", "setting": "[2]; [5]", "value": "significant effect at both the 200 and 400 mg doses in slowing loss of volume"}, {"measurement": "volume loss in voxel-based whole brain MRI, drug versus placebo", "setting": "[2]; treatment period", "value": "slow volume loss in brain regions known to be particularly vulnerable to degeneration in AD"}, {"measurement": "voxel-wise structural MRI volume loss, age analysis", "setting": "[2]; younger <72 years, older >=72 years", "value": "significant drug effect in both age groups"}, {"measurement": "FDG-PET voxel (MCS) analysis, dose comparison", "setting": "[3]", "value": "400 mg effect is significant and significantly greater than the 200 mg effect"}, {"measurement": "FDG-PET voxel (MCS) analysis, dose comparison", "setting": "[3]; listed as LM11A-31", "value": "The effect at the 400 mg dose is higher than that at the 200 mg dose"}, {"measurement": "FDG-PET statistical ROI decline, drug versus placebo", "setting": "[3]; combined drug group, 6 month period", "value": "trend to less decline"}, {"measurement": "cerebral glucose rate compared to placebo or no treatment", "setting": "[3]; daily treatment", "value": "reduction in the extent of ongoing decrease in cerebral glucose rate"}, {"measurement": "FDG-PET loss of SUVR signal, dose analysis", "setting": "[3]; [5]", "value": "significant effect at both the 200 and 400 mg doses in slowing loss of SUVR signal"}, {"measurement": "FDG-PET sROI, dose comparison", "setting": "[3]; not statistically significant", "value": "greater trend is observed at 400 compared to the 200 mg dose"}, {"measurement": "deaths, SAEs, severe TEAEs, discontinuations because of an AE", "setting": "[4]; in vivo", "value": "no deaths, SAEs, severe TEAEs, and no subjects were discontinued because of an AE"}, {"measurement": "intensity of TEAEs", "setting": "[4]; in vivo", "value": "All TEAEs were mild"}, {"measurement": "laboratory results, physical examination, vital signs, ECG, C-SSRS", "setting": "[4]; in vivo", "value": "No clinically significant laboratory results, physical examination findings, vital signs, ECG findings, or positive scores"}, {"measurement": "subjects who experienced TEAEs", "setting": "[4]; multiple doses", "value": "7 of 16"}, {"measurement": "total TEAEs", "setting": "[4]; multiple doses", "value": 8}, {"measurement": "TEAEs considered unrelated to study drug", "setting": "[4]; multiple doses, remaining 2 possibly (flatulence) or remotely (nocturia) related", "value": 6}, {"measurement": "subjects who experienced a TEAE", "setting": "[4]; single dose", "value": "1 of 40"}, {"measurement": "total TEAEs", "setting": "[4]; single dose, postural dizziness, possibly related", "value": 1}, {"measurement": "safety and tolerability", "setting": "[4]; single doses of 100, 300, 600 and 900 mg free base, multiple doses of 300 BID and 600 mg free base QD", "value": "generally safe and well tolerated"}]}]}
